Assay results: BindingDB's records for doi:10.1021/acs.jmedchem.0c01826 (Athenex, 2021)

Experiments:
[1] = Inhibition of P-gp (unknown origin) expressed in MCF7 cells assessed as increase in reversal of resistance to paclitaxel-induced cytotoxicity by measuring reduction in paclitaxel EC50 at 50 nM incubated for 72 hrs in presence of paclitaxel by SRB assay (Rvb = 11.5 nM)
[2] = Inhibition of P-gp (unknown origin) expressed in MES-SA/DX5 cells assessed as increase in reversal of resistance to paclitaxel-induced cytotoxicity by measuring reduction in paclitaxel EC50 at 50 nM incubated for 72 hrs in presence of paclitaxel by SRB assay (Rvb = 294.6 nM)
[3] = Inhibition of P-gp (unknown origin) expressed in MES-SA/DX5 cells assessed as cell growth inhibition after 3 days in presence of 200 nM paclitaxel by MTT assay

SMILES	EC50 [1] [nM]	EC50 [2] [nM]	EC50 [3] [nM]
COc1cc2c(cc1OC)CN(CCc1ccc(-n3nnc(-c4cc(OC)c(OC)cc4NC(=O)c4cc(=O)c5cc(F)ccc5o4)n3)cc1)CC2	8.1	7.5	–
COc1cc2c(cc1OC)CN(CCc1ccc(-n3nnc(-c4cc(OC)c(OC)cc4NC(=O)c4cc(=O)c5ccccc5o4)n3)cc1)CC2 [Encequidar]	7.9	4.9	13
COc1cc2c(cc1OC)CN(CCc1ccc(-n3nnc(-c4cc(OC)c(OC)cc4NC(=O)c4nccc5ccccc45)n3)cc1)CC2	7.6	162	–
COc1cc2c(cc1OC)CN(CCc1ccc(-n3nnc(-c4cc(OC)c(OC)cc4NC(=O)c4ccc5ccccc5n4)n3)cc1)CC2	12	110	–
COc1cc2c(cc1OC)CN(CCc1ccc(-n3nnc(-c4cc(OC)c(OC)cc4NC(=O)c4cc(=O)c5c(OC)cccc5o4)n3)cc1)CC2	7.4	5.9	–
COc1cc2c(cc1OC)CN(CCc1ccc(-n3nnc(-c4cc(OC)c(OC)cc4NC(=O)c4cc5ccccc5cn4)n3)cc1)CC2	8.5	84	–
COc1cc2c(cc1OC)CN(CCc1ccc(-n3nnc(-c4cc(OC)c(OC)cc4NC(=O)c4cc(=O)c5cc(C)ccc5o4)n3)cc1)CC2	6.5	4	–
COc1cc2c(cc1OC)CN(CCc1ccc(-n3nnc(-c4cc(OC)c(OC)cc4NC(=O)c4ccc(F)c(F)c4)n3)cc1)CC2	10	80	–
COc1cc2c(cc1OC)CN(CCc1ccc(-n3nnc(-c4cc(OC)c(OC)cc4NC(=O)c4ccsc4)n3)cc1)CC2	6.4	66	–
COc1cc2c(cc1OC)CN(CCc1ccc(-n3nnc(-c4cc(OC)c(OC)cc4NC(=O)c4ccoc4)n3)cc1)CC2	10	84	–
COc1cc2c(cc1OC)CN(CCc1ccc(-n3nnc(-c4cc(OC)c(OC)cc4NC(=O)c4cccnc4)n3)cc1)CC2	9.1	98	–
COc1cc2c(cc1OC)CN(CCc1ccc(-n3nnc(-c4cc(OC)c(OC)cc4NC(=O)c4cccc5cccnc45)n3)cc1)CC2	5.4	69	–
COc1cc2c(cc1OC)CN(CCc1ccc(-n3nnc(-c4cc(OC)c(OC)cc4NC(=O)c4coc5ccccc5c4=O)n3)cc1)CC2	9	140	–
COc1cc2c(cc1OC)CN(CCc1ccc(-n3nnc(-c4cc(OC)c(OC)cc4NC(=O)c4cnc5ccccc5c4)n3)cc1)CC2	7.9	15	75
COc1cc2c(cc1OC)CN(CCc1ccc(-n3nnc(-c4cc(OC)c(OC)cc4NC(=O)c4cncc5ccccc45)n3)cc1)CC2	9.1	89	–
COc1cc2c(cc1OC)CN(CCc1ccc(-n3nnc(-c4cc(OC)c(OC)cc4NC(=O)c4cnccn4)n3)cc1)CC2	9.1	98	–
COc1cc2c(cc1OC)CN(CCc1ccc(-n3nnc(-c4cc(OC)c(OC)cc4NC(=O)c4ccc5ccccc5c4)n3)cc1)CC2	10	113	–
COc1cc2c(cc1OC)CN(CCc1ccc(-n3nnc(-c4cc(OC)c(OC)cc4NC(=O)c4ccccc4)n3)cc1)CC2	7.7	87	–
COc1cc2c(cc1OC)CN(CCc1ccc(NC(=O)c3cc(OC)c(OC)cc3NC(=O)c3cnc4ccccc4c3)cc1)CC2	–	–	16
